Experimental data as given in patent US20260209242A1, “CAMPTOTHECIN DERIVATIVE, PHARMACEUTICAL COMPOSITION, AND PREPARATION METHOD AND USE THEREFOR” (priority 2022, published 2026).
pIC50: −log10 of the molar value. Like-named read-outs stand apart in the source and are kept apart here.

Assays:
[1] = biological target: T1, CYP3A4 (Homo sapiens, UniProt P08684); experiment: Inhibition on human hepatomicrosomes CYP3A4; type: in vitro ADME
T1 construct: from tissue; host or cells: human liver microsomes
T1 sequence (P08684 whole entry): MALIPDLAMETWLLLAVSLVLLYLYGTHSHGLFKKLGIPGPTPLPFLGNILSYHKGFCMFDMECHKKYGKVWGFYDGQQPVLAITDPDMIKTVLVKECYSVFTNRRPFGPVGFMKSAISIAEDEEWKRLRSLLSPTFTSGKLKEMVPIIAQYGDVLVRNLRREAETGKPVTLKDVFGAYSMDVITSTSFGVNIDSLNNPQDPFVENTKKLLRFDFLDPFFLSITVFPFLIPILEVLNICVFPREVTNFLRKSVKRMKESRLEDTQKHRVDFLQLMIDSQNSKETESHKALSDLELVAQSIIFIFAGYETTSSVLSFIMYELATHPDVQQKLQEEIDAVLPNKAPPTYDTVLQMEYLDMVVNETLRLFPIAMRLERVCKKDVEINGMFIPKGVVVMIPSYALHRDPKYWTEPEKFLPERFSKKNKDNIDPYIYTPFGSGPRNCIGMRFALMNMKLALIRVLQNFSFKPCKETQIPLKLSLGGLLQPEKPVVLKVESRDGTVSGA

[2] = tested on: MDA-MB-468; experiment: Inhibition of proliferation of cells MDA-MB-468 (CelltiterGlo, 72 h); type: cell-based; details: Homo sapiens; MDA-MB-468 cells, 72 h, CTG; read-out: IC50 (nM), antiproliferative activity on MDA-MB-468
Experimental: (§1) • (1) Cell plating: first, tumor cells MDA-MB-468 were cultured using a corresponding culture medium, trypsinized, centrifuged, resuspended for counting, adjusted to an appropriate concentration, and then plated on a 384-well plate. • (2) Co-incubation of the compounds and tumor cells: after the cells adhered to the wall, 100 nL of a diluted bioactive substance (test compound) was added to the cell culture plate using ECHO, the final concentration of DMSO in wells of the cell plate was 0.33%, and the incubation was performed in an incubator at 37° C. with […] for 72 h. • (3) After the incubation was complete, 30 μL of a CTG reagent (CelltiterGlo kit) was added to each well. The culture was oscillated on a fast oscillator for 2 min, centrifuged at 1,000 rpm for 1 min, and kept away from light at room temperature for 30 min. The chemiluminescence signal value was read using an Envision instrument. • (4) Cell viability detection: IC50 was calculated using GraphPad Prism 8 software, and the IC50 of the compounds was obtained using the following nonlinear fitting formula (see Table 2):
[formula] • Y: inhibition rate: X: log value of compound concentration;
(§2) [formula] • high-reading control wells: cells with addition of 100 nL DMSO; and • low-reading control wells: cell-free wells.

[3] = biological target: T2, CYP1A2 (Homo sapiens, UniProt P05177); experiment: Inhibition on human hepatomicrosomes CYP1A2
T2 sequence (P05177 1-516): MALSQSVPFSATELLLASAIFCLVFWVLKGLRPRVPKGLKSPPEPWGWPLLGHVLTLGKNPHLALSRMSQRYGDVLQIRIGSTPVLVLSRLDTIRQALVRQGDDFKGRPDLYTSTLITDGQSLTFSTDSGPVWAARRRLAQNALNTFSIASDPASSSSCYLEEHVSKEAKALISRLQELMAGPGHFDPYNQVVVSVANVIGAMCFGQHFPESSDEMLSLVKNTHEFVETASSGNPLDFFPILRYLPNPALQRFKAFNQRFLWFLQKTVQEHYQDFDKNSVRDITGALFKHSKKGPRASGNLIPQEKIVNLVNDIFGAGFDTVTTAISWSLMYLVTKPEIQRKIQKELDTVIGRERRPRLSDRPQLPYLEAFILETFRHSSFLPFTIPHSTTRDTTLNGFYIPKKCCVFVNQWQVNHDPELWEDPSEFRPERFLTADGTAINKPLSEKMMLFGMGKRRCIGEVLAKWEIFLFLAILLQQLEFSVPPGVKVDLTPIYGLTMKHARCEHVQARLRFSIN

[4] = tested on: NCI-N87; experiment: Inhibition of proliferation of cells NCI-N87 (CelltiterGlo, 72 h); type: cell-based; details: Homo sapiens; NCI-N87 cells, 72 h, CTG; read-out: IC50 (nM), antiproliferative activity on cells NCI-N87
Experimental: as §1, with “NCI-N87” for “MDA-MB-468”, “3):” for “2):”
[formula] • Y: inhibition rate, X: log value of compound concentration;
as §2

[5] = Stability of compounds in human plasma; type: in vitro ADME; details: 5 μmol/L
[6] = biological target: CYP2D6 (Homo sapiens, UniProt P10635); experiment: Inhibition on human hepatomicrosomes CYP2D6
Chain of CYP2D6 (P10635 whole entry): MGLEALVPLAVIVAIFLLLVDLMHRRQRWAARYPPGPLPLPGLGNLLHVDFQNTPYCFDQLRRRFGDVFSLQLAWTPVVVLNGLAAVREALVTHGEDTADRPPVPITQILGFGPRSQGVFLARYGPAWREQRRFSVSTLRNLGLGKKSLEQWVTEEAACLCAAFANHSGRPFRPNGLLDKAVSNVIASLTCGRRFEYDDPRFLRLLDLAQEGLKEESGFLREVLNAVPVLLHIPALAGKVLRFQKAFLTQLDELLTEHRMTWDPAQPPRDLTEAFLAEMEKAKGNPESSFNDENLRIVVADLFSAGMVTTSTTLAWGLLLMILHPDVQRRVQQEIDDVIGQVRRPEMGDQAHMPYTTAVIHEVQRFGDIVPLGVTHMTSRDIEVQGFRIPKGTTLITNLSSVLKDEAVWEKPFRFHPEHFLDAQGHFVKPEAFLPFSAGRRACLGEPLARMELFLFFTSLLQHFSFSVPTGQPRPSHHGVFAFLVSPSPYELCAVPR

[7] = Pharmacokinetic test in SD rats; details: male, Sprague-Dawley (SD), rat, in vivo, iv, 2 mg/kg
Experimental: After a single intravenous injection (dose: 2 mpk) of the compounds 6-2, 11-2, 17-2, and Dxd into male SD rats (blood collection time points: 0.083 h, 0.25 h, 0.5 h, 1 h, 2 h, 4 h, 8 h, and 24 h after IV administration, totaling 8 blood collection time points), average pharmacokinetic parameters in the plasma are as shown in Table 5: […]

[8] = Stability of compounds in human plasma; type: in vitro ADME
Experimental: • (1) 199 μL of human plasma was added to the culture plate of each cell. The culture plate was preheated to 37° C., and kept at this temperature for 15 min. • (2) After preincubation, 1 μL of 1 mmol/L each test compound and 1 μL of 1 mmol/L control compound were added to 199 μL of plasma, so that a final concentration of each test compound was 5 μmol/L and that of the control compound was 5 gmol/L. The final concentration of the organic solvent was 0.5%. The experiment would be duplicated twice. • (3) Reaction samples were incubated at 37° C. • (4) The reaction was stopped by adding 600 μL of cold methanol containing the internal standard at 0, 1, 2, 6, and 24 h. Each sample was vortex mixed for 10 min, and then centrifuged at 3,220 g for 30 min to precipitate the protein. […] Based on the signal response and peak shapes of liquid chromatography-mass spectrometry (LC-MS), the supernatant would be diluted with ultrapure water.
All calculations were performed using Microsoft Excel. The peak area ratio was determined from the chromatogram of extracted ions. The percentage of compounds remaining at each time point was calculated as per the following formula: […]

CC[C@@]1(O)C(=O)OCc2c1cc1n(c2=O)Cc2c-1nc1cc(F)c(C)c3c1c2[C@@H](NC(=O)[C@@H](O)C1CC1)CCC3 [Compound 11-2, (S)-2-cyclopropyl-N-((1S,10S)-10-ethyl-6-fluoro-10-hydroxy-5-methyl-11,14-dioxo-1,2,3,4,10,11,14,16-octahydro-13H-cyclohepta[de]pyrano[3′,4′:6,7]indolizino[1,2-b]quinolin-1-yl)-2-hydroxyacetamide]
pIC50 [1]: < 4.52 | IC50 ([1]; read-out: 3A4T (IC50 μM), human hepatomicrosomes, substrate testosterone): > 30 µM | IC50 [2]: 4.5 nM | pIC50 [3]: < 4.52 | IC50 [4]: 2.3 nM | Residual percentage (%) 4 h [5]: 93.40% | pIC50 [6]: < 4.52 | AUC(0-inf) [7]: 465 ng·h/mL | AUC(0-t) [7]: 460 ng·h/mL | C0 [7]: 848 ng/mL | Vd [7]: 3.01 L/kg | clearance [7]: 72.7 mL/min/kg | half-life [7]: 37.8 min | Residual percentage (%) 1 h ([8]; 1 h, 5 μmol/L): 96.80% | Residual percentage (%) 2 h ([8]; 2 h, 5 μmol/L): 92.06% | Residual percentage (%) 6 h ([8]; 6 h, 5 μmol/L): 94.45% | Residual percentage (%) 24 h ([8]; 24 h, 5 μmol/L): 88.81% | stability in human plasma (in words) ([8]; plasma): good stability in human plasma
